# According to patent US9399788B2, “Method for inspecting susceptibility of bacteria or fungi to antimicrobial drug and system for use in the same” (priority 2011, dated 2016):
# Assays:
# [1] = test system: #2 strain of Pseudomonas aeruginosa (multi-drug resistant strain); test: MIC by method using micro-device 1 (microscope observation of growth and shape in flow channel); assay type: cell-based; settings: for MIC: Pseudomonas aeruginosa, read-out: MIC (minimum inhibitory concentration)
# Description: Thus, antimicrobial drug solutions were prepared.
# Pseudomonas aeruginosa was pre-cultured at 37° C. for 24 hours using a Mueller-Hinton Agar (Becton, Dickinson and Company) plate. A colony was suspended in a Mueller-Hinton broth so as to have MacFarland=0.5 (OD600=0.132). As Pseudomonas aeruginosa, multi-drug resistant strains #2 and #5 (available from BML) and an S1 strain (susceptibility strain, available from BML) were used.
# The antimicrobial drug solution obtained in the (2) above and the culture solution obtained in the (3) above were mixed at a volume ratio of 1 9, and 1 μL of a resultant mixture was injected into each inlet of a micro-device 1. As a control, sterile water as a substitute for the antimicrobial drug solution and the culture solution were mixed at a volume ratio of 1:9, and 1 μL of a resultant mixture was injected into an inlet of the micro-device 1. Then, the micro-device 1 was placed in a petri dish, and the petri dish was placed in an airtight container. Kimwipe (Trade Mark) containing water was placed in each of the petri dish and the airtight container. The airtight container was placed in an incubator at 37° C. and incubated for 3 hours. The relative humidity of each of the airtight container and the petri dish was 97%.
# The micro-device 1 was taken out of the airtight container, and an increase or decrease in the amount of bacteria and a change in shape relative to the control in an observation area was checked by a microscope, and the MIC (minimum inhibitory concentration) was determined.
# [2] = test system: #2 strain of Pseudomonas aeruginosa (multi-drug resistant strain); test: MIC by broth microdilution method according to the CLSI standards (standard method); assay type: cell-based
# [3] = method using the micro-device, 37° C., 3 hours incubation
Molecule,"MIC [1, 3] [µg/mL]","MIC ([2]; Pseudomonas aeruginosa, standard method (broth microdilution, CLSI), read-out: MIC (minimum inhibitory concentration)) [µg/mL]",determination based on the break point of CLSI ([1]; MIC by method using the micro-device),"MIC (minimum inhibitory concentration) [1, 3] [µg/mL]",determination based on the break point of CLSI ([2]; MIC by standard method),"MIC (minimum inhibitory concentration) ([2]; standard method (broth microdilution, CLSI)) [µg/mL]"
"NCC[C@H](O)C(=O)N[C@@H]1C[C@H](N)[C@@H](O[C@H]2O[C@H](CN)[C@@H](O)[C@H](O)[C@H]2O)[C@H](O)[C@H]1O[C@H]1O[C@H](CO)[C@@H](O)[C@H](N)[C@H]1O [AMK, Amikacin]",≥ 32,64,,,,
"O=C(O)c1cn(C2CC2)c2cc(N3CCNCC3)c(F)cc2c1=O [CPFX, Ciprofloxacin]",≥ 4,,,,,
Imipenem/Cilastatin [IPM],,,Resistance (R),16,Resistance (R),32
